In ChEMBL document CHEMBL6087482, “Discovery of INCB159020, an Orally Bioavailable KRAS G12D Inhibitor” (J Med Chem, 2025):

Legend:
[1] = Inhibition of ERK phosphorylation in KRAS G12D mutant dependent human HPAF-II cells incubated for 2 hrs by HTRF assay; format: cell-based
[2] = Intrinsic clearance in human liver microsomes at 1 uM measured upto 30 mins in presence of NADPH by LC/MS analysis; format: ADME, Microsome; details: read-out: CLH (converted)
[3] = Apparent permeability across apical to basolateral side in human Caco-2 cells at 50 uM incubated for 120 mins by LC-MS analysis; format: ADME, cell-based
[4] = Inhibition of ERK phosphorylation in KRAS G12D mutant dependent human HPAF-II cells incubated for 2 hrs with human whole blood containing compound by HTRF assay; format: cell-based
GTPase KRas [5] = target: GTPase KRas (Homo sapiens, UniProt P01116, G12D); test: Inhibition of bodipy-loaded KRAS G12D mutant (unknown origin) assessed as GDP-GTP exchange preincubated for 4 hrs followed by GppNHp and SOS1 addition and measured after 2 hrs by fluorescence based plate reader analysis
GTPase KRas [6] = target: GTPase KRas (Homo sapiens, UniProt P01116); test: Binding affinity to KRAS (unknown origin) assessed as dissociation constant by SPR analysis
[7] = Oral bioavailability in Non human primate at 2.0 mg/kg; format: ADME, organism-based; details: primates, in vivo
[8] = AUC in Non human primate at 2.0 mg/kg, po or 1 mg/kg, iv; format: ADME, organism-based; details: primates, in vivo
Primates [9] = test: Clearance in Non human primate assessed as hepatic blood flow at 2.0 mg/kg, po or 1 mg/kg, iv; format: ADME, organism-based; details: in vivo
[10] = Clearance in Sprague-Dawley rat assessed as hepatic blood flow at 3 mg/kg, po or 0.1 mg/kg, iv measured after 24 hrs by LC-MS/MS analysis; format: ADME, organism-based; details: in vivo
[11] = Half-life in Sprague-Dawley rat at 3 mg/kg, po or 0.1 mg/kg, iv measured after 24 hrs by LC-MS/MS analysis; format: ADME, organism-based; details: in vivo
[12] = AUC in Sprague-Dawley rat at 3 mg/kg, po or 0.1 mg/kg, iv measured after 24 hrs by LC-MS/MS analysis; format: ADME, organism-based; details: in vivo
[13] = Half-life in Non human primate at 2.0 mg/kg, po or 1 mg/kg, iv; format: ADME, organism-based; details: primates, in vivo
[14] = Cmax in Sprague-Dawley rat at 3 mg/kg, po or 0.1 mg/kg, iv measured after 24 hrs by LC-MS/MS analysis; format: ADME, organism-based; details: in vivo
[15] = Oral bioavailability in Sprague-Dawley rat at 3 mg/kg measured after 24 hrs by LC-MS/MS analysis; format: ADME, organism-based; details: in vivo
[16] = Cmax in Non human primate at 2.0 mg/kg, po or 1 mg/kg, iv; format: ADME, organism-based; details: primates, in vivo
[17] = Efflux ratio of apparent permeability in human Caco-2 cells at 50 uM incubated for 120 mins by LC-MS analysis; format: ADME, cell-based
Primates [18] = test: Clearance in Non human primate assessed as hepatic blood flow at 2.0 mg/kg, po or 0.5 mg/kg, iv; format: ADME, organism-based; details: in vivo
[19] = Cmax in Sprague-Dawley rat at 3 mg/kg, po or 1 mg/kg, iv measured after 24 hrs by LC-MS/MS analysis; format: ADME, organism-based; details: in vivo
[20] = Half-life in Sprague-Dawley rat at 3 mg/kg, po or 1 mg/kg, iv measured after 24 hrs by LC-MS/MS analysis; format: ADME, organism-based; details: in vivo
[21] = Half-life in Non human primate at 2.0 mg/kg, po or 0.5 mg/kg, iv; format: ADME, organism-based; details: primates, in vivo
[22] = Clearance in Sprague-Dawley rat assessed as hepatic blood flow at 3 mg/kg, po or 1 mg/kg, iv measured after 24 hrs by LC-MS/MS analysis; format: ADME, organism-based; details: in vivo
Primates [23] = test: AUC in Non human primate at 2.0 mg/kg, po or 0.5 mg/kg, iv; format: ADME, organism-based; details: in vivo
Primates [24] = test: Clearance in Non human primate at 2.0 mg/kg, po or 0.5 mg/kg, iv; format: ADME, organism-based; details: in vivo
[25] = AUC in Sprague-Dawley rat at 3 mg/kg, po or 1 mg/kg, iv measured after 24 hrs by LC-MS/MS analysis; format: ADME, organism-based; details: in vivo
[26] = Cmax in Non human primate at 2.0 mg/kg, po or 0.5 mg/kg, iv; format: ADME, organism-based; details: primates, in vivo

Sequence of GTPase KRas (Homo sapiens, UniProt P01116) (P01116 whole entry): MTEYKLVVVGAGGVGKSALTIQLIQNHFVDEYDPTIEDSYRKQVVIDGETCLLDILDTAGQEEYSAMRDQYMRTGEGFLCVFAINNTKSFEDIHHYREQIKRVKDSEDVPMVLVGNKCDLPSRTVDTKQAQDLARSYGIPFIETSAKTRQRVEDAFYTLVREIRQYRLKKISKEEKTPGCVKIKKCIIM

Row | Compound | IC50 [1] [nM] | hepatic clearance at 1 µM [2] [mL/min/kg] | Papp A→B at 2 h, 50 µM [3] [×10⁻⁶ cm/s] | IC50 [4] [nM] | IC50 (GTPase KRas [5]) [nM] | Kd (GTPase KRas [6]) [nM] | other results
1 | CN(C)C1CN(c2nc(N3CC4CCC(C3)N4)c3cc(Cl)c(-c4cc(O)cc5ccccc45)c(F)c3n2)C1 | – | – | – | – | 704 | – | –
2 | Cc1nc2c(F)c(-c3cccc4ccc(F)cc34)c(CCC#N)cc2c2c1cc(CN1CCOCC1=O)n2[C@H]1[C@H]2CN[C@@H]1C2 | 7.2 | > 18.3 | 0.7 | 677 | 2.7 | – | –
3 | CN(C)C1CN(c2nc(N3CCNCC3)c3cc(Cl)c(-c4cc(O)cc5ccccc45)c(F)c3n2)C1 | – | – | – | – | 8000 | – | –
4 | CC(Oc1nc2c(F)c(-c3cc(O)cc4ccccc34)c(CCC#N)cc2c2c1nc(CCC(=O)N(C)C)n2[C@H]1[C@H]2CN[C@@H]1C2)C1CCCN1C (single isomer, unassigned) | 1240 | – | – | – | 15 | – | –
5 | CN(C)C1CN(c2nc3c(F)c(-c4cc(O)cc5ccccc45)c(Cl)cc3c3c2ncn3[C@H]2[C@H]3CN[C@@H]2C3)C1 | – | – | – | – | 671 | – | –
6 | CN(C)C(=O)CCc1cc2c(OC[C@@]34CCCN3C[C@H](F)C4)nc3c(F)c(-c4cc(O)cc5ccccc45)c(CCC#N)cc3c2n1[C@H]1[C@H]2CN[C@@H]1C2 | 20 | > 18.3 | < 0.1 | 410 | 2.1 | < 0.001 | –
7 | CN(C)C(=O)CCc1cc2c(N3CC(C)(N(C)C)C3)nc3c(F)c(-c4cc(O)cc5ccccc45)c(CCC#N)cc3c2n1[C@H]1[C@H]2CN[C@@H]1C2 | 104 | – | – | 1130 | 3 | 0.04 | –
8 | N#CCCc1cc2c(nc(OC[C@@]34CCCN3C[C@H](F)C4)c3cc(CCC(=O)N4CCC4)n([C@@H]4[C@H]5CN[C@@H]4C5)c32)c(F)c1-c1cccc2ccc(F)cc12 | 62 | – | – | 1100 | – | 0.24 | –
9 | N#CCCc1cc2c(nc(-n3cncn3)c3cc(CN4CCOCC4=O)n([C@H]4[C@H]5CN[C@@H]4C5)c32)c(F)c1-c1cccc2ccc(F)cc12 | 10 | > 18.3 | 1.7 | 519 | 3.7 | 0.84 | –
10 | Cc1nc2c(F)c(-c3cc(O)cc4ccccc34)c(CCC#N)cc2c2c1cc(CN1CCCCC1=O)n2[C@H]1[C@H]2CN[C@@H]1C2 | 45 | – | – | 597 | 3.5 | – | –
11 | Cc1cc2c(nc(N3CC(N(C)C)C3)c3nc(CCC(=O)N(C)C)n([C@H]4[C@H]5CN[C@@H]4C5)c32)c(F)c1-c1cc(O)cc2ccccc12 | 1300 | – | – | – | 12 | 3 | –
12 | N#CCCc1cc2c(nc(-c3ccncn3)c3cc(CN4CCOCC4=O)n([C@H]4[C@H]5CN[C@@H]4C5)c32)c(F)c1-c1cccc2ccc(F)cc12 | 17 | 11.7 | 1.1 | 626 | 3.8 | – | efflux ratio at 2 h, 50 µM [17]: 20
13 | Cc1nc2c(F)c(-c3cccc4ccc(F)cc34)c(CCC#N)cc2c2c1cc(CN1CCCCC1=O)n2[C@H]1[C@H]2CN[C@@H]1C2 | 39 | > 18.3 | 0.7 | 1030 | 6.1 | – | –
14 | Cc1cc(-c2nc3c(F)c(-c4cccc5ccc(F)cc45)c(CCC#N)cc3c3c2cc(CN2CCOCC2=O)n3[C@H]2[C@H]3CN[C@@H]2C3)ccn1 | 36 | 16.7 | 1.6 | 565 | 6.9 | 1.2 | bioavailability [7]: 0%; QH (Primates [18]): 37%; Cmax [19]: 41.5 nM; half-life [20]: 3.5 h; half-life [21]: 8.4 h; QH [22]: > 100%; AUC (Primates [23]): Below_limit_of_detection; CL (Primates [24]): 16.2 mL/min/kg; bioavailability [15]: 11%; AUC at 24 h [25]: 0.108 µM·h; Cmax [26]: 2.5 nM

Further lines, with some results ahead:

Row | IC50 [1] [nM] | hepatic clearance at 1 µM [2] [mL/min/kg] | Papp A→B at 2 h, 50 µM [3] [×10⁻⁶ cm/s] | IC50 [4] [nM] | IC50 (GTPase KRas [5]) [nM] | Kd (GTPase KRas [6]) [nM] | Compound | other results
15 | 21 | > 18.3 | 0.2 | 2350 | 2.6 | 0.05 | CCOc1nc2c(F)c(-c3cc(O)cc4ccccc34)c(CCC#N)cc2c2c1cc(CN1CCCCC1=O)n2[C@H]1[C@H]2CN[C@@H]1C2 | –
16 | 28 | > 18.3 | 0.2 | 492 | 3.8 | 0.26 | CCOc1nc2c(F)c(-c3cc(O)cc4ccccc34)c(CCC#N)cc2c2c1cc(CCC(=O)N(C)C)n2[C@H]1[C@H]2CN[C@@H]1C2 | –
17 | 54 | – | – | 2620 | 3.6 | 0.1 | CC(Oc1nc2c(F)c(-c3cc(O)cc4ccccc34)c(CCC#N)cc2c2c1cc(CCC(=O)N(C)C)n2[C@H]1[C@H]2CN[C@@H]1C2)C1CCCN1C (single isomer, unassigned) | –
18 | 92 | – | – | 1240 | 2.9 | 0.031 | CN(C)C(=O)CCc1nc2c(N3CC(C)(N(C)C)C3)nc3c(F)c(-c4cc(O)cc5ccccc45)c(CCC#N)cc3c2n1[C@H]1[C@H]2CN[C@@H]1C2 | –
19 | 6.8 | > 18.3 | 1.4 | 55 | 2.8 | 1.5 | Cc1cnc(-c2nc3c(F)c(-c4cccc5ccc(F)cc45)c(CCC#N)cc3c3c2cc([C@@H](C)N2CCOCC2=O)n3[C@H]2[C@H]3CN[C@@H]2C3)cn1 | bioavailability [7]: 2%; AUC [8]: 0.068 µM·h; QH (Primates [9]): 39%; QH [10]: > 100%; half-life [11]: 2.5 h; AUC at 24 h [12]: 0.085 µM·h; half-life [13]: 4.9 h; Cmax [14]: 24 nM; bioavailability [15]: 20%; Cmax [16]: 7.2 nM
20 | – | 11.7 | – | – | 391 | – | CCOc1nc2c(F)c(-c3cccc4ccc(F)cc34)c(CCC#N)cc2c2c1cc(CCC(=O)N(C)C)n2[C@H]1[C@H]2CN[C@@H]1C2 | –
21 | 7.5 | > 18.3 | 0.6 | 103 | 2.1 | 0.94 | Cc1cc(-c2nc3c(F)c(-c4cccc5ccc(F)cc45)c(CCC#N)cc3c3c2cc([C@@H](C)N2CCOCC2=O)n3[C@H]2[C@H]3CN[C@@H]2C3)ccn1 | –
22 | 127 | – | – | 977 | 2.9 | 0.02 | CN(C)C(=O)CCc1nc2c(N3CC(N(C)C)C3)nc3c(F)c(-c4cc(O)cc5ccccc45)c(CCC#N)cc3c2n1[C@H]1[C@H]2CN[C@@H]1C2 | –
